What all share (type): cell-based, human
The test system of assay [1] is p62 and LC3B protein expression in U87-MG cells. Kind of assay: Western blot of autophagy markers p62 and LC3B. The source says:
Ras dysregulated tumors depend on autophagy to remove damaged mitochondria and allow for their survival. […] LC3B I is lipidated to form LC3B II following induction of autophagy. LC3B II is recruited and subsequently integrated into the autophagosome. p62 functions as an adaptor protein in autophagy by binding to both ubiquitin-labeled damaged cargo such as protein aggregates or mitochondria and LC3B II to facilitate cargo uptake into the autophagosome. Degradation of the cargo occurs when the autophagosome fuses with the lysosome; when autophagy is inhibited with hydroxychloroquine (HCQ), a drug that prevents acidification of the lysosome, both LC3B II and p62 accumulate as derogation of the autophagosome is prevented, making them valuable markers of autophagic flux.
The data for FIG. 4 was obtained as follows: U87-MG cells were plated in 6-well plates at a concentration of 500,000 cells/well and allowed to adhere overnight. Cells were treated for 12 h with either DMSO or 2 μM Y102, followed by an additional 12 h co-treatment with or without 50 μM HCQ. Following treatment, cells were harvested using 0.25% trypsin, rinsed with PBS, and lysed with 75 μL modified RIPA buffer (50 mM NaCl, 1% v/v nonidet P40, 0.5% w/v sodium deoxycholate, 0.05% w/v sodium dodecyl sulfate, 50 mM Tris pH 8.0) containing 1 mM NaVO4, 1 mM NaF, 1 mM phenylmethylsulfonyl fluoride, 0.1 μg/mL leupeptin, 100 μM benzamidine HCl, 1 μM aprotinin, 0.1 μg/mL soybean trypsin inhibitor, 0.1 μg/mL pepstatin, and 0.1 μg/mL antipain. Protein was quantified using a BCA assay kit (Pierce). 40 μg of protein prepared in 1× Laemmli sample buffer (50 mM Tris pH 6.8, 0.02% w/v bromophenol blue, 2% w/v sodium dodecyl sulfate, 10% v/v glycerol, 1% v/v beta-mercaptoethanol, 12.5 mM EDTA) was separated on a 4-15% polyacrylamide gel using sodium dodecyl sulfate-polyacrylamide gel electrophoresis. Protein was transferred to nitrocellulose membrane, blocked in 5% nonfat milk in TBST, and probed with primary antibodies anti-LC3BI/II (Cell Signaling, 1:1000, overnight at 4° C.), anti-p62/SQSTM-1 D-3 (Santa Cruz, 1:1000, 1 h at room temperature), or anti-α-tubulin B-1-2-5 (Santa Cruz, 1:10000, 1 h at room temperature) in 2% nonfat milk in TBST. Blots were incubated in 1:20,000 anti-rabbit HRP or 1:10,000 anti-mouse HRP secondary antibodies diluted in 2% nonfat milk in TBST for 1 h at room temperature. Film was exposed to standard ECL (Pierce)-coated blots and developed using a standard film processor.
For orientation: In western blotting, separated proteins are transferred to a membrane and probed.

Assay [2] concerns mitochondria of U87-MG cells. Description: Mitotracker Red CMXRos mitochondrial phenotype imaging. The settings on record: 24 h, 2 or 4 μM. The method, then: To examine whether there was a change in the mitochondrial phenotype of cells following Y102 treatment, Mitotracker Red CMXRos, a fluorescent dye whose accumulation is dependent upon membrane […], was used.
The data for FIG. 7 was obtained as follows: U87-MG cells were plated on poly-L-lysine (Sigma) coated coverslips at a concentration of 50,000 cells/well in a 24-well plate and allowed to adhere overnight. Cells were treated for 24 h with DMSO, 2 μM Y102, 4 μM Y102, or 50 μM HCQ. 30 minutes prior to collection, cells were stained with 100 nM Mitotracker Red CMXRos (Cell Signaling Technology, red) in media at 37° C. Cells were fixed for 10 minutes with 4% methanol-free paraformaldehyde, permeabilized for 15 minutes with 0.5% Triton X-100, blocked with immunofluorescence buffer (2%[v/v] goat serum, 0.2%[v/v] Triton X-100 and 0.05%[w/v] sodium azide in PBS) for 1 h, and stained for 1 h at room temperature for the autophagy marker p62 using anti-p62/SQSTM-1 D-3 (Santa Cruz, 1:500, 1 h at room temperature). Following 3 washes with PBST, cells were stained with goat anti-mouse 488 (Jackson ImmunoResearch Laboratories) secondary antibody for 1 h (green; not shown). After an additional two washes with PBST, cell nuclei were stained with 0.33 μg/mL DAPI (Molecular Probes) for 5 minutes (blue). Coverslips were mounted on glass slides with ProLong Gold antifade medium. […]

In assay [3] the test system is U-87-MG. Kind of assay: Glioblastoma cell growth, Alamar Blue, 3 or 7 days. The settings on record: 3.9×10^-8 M to 2×10^-5 M. The method, then:
(§1) 1000 cells in logarithmic phase were seeded per well (96 well plates) on day zero. The cells were treated for either 3 (red) or 7 (blue) days at a concentration range between 3.9×10^-8 M and 2×10^-5 M. Growth was assayed by the Alamar Blue method.
For orientation: The colour change of resazurin is a common sign of viable cells or microbes.

Assay [4] has as its system U251-MG. Description: Glioblastoma cell growth, Alamar Blue, 3 or 7 days. The following applies: 3.9×10^-8 M to 2×10^-5 M. The method, then: as §1

Structures are written as SMILES. “Also recorded” adds a separate entry of the source.

`Cn1cnnc1S/C=C/C(=O)c1ccc(F)cc1` [Y102]: the “LC3B I/II conversion (LC3B II accumulation)” value is reported as “LC3B II accumulation occurred, but not as robustly as with HCQ alone; also recorded: LC3B I/II conversion was seen” in assay [1] (12 hours Y102 followed by 12 hours HCQ co-treatment) and “not found to accumulate; also recorded: not LC3B I/II conversion” in assay [1] (U87-MG, Western blot, single agent, 2 μM Y102, 50 μM HCQ). For the same molecule, the “p62 accumulation (autophagy marker)” value in assay [1] (U87-MG, Western blot, 24 hours, 2 μM Y102, 50 μM HCQ) is “accumulation of the autophagy marker p62”. The “mitochondrial phenotype (Mitotracker Red CMXRos)” value in assay [2] is “altered mitochondrial phenotype; also recorded: perinuclear clustering of the mitochondria”; in assay [2] (listed as Y1022), “perinuclear accumulation of the mitochondria”. The “sensitivity of U-87-MG (growth)” value in assay [3] was “sensitive”. Further, the “sensitivity of U251-MG (growth)” value in assay [4] is recorded as “sensitive”.

The record behind these values is patent US9873705B2, “Vinylogous thioester compounds and methods of use” (THE TRUSTEES OF DARTMOUTH COLLEGE, priority 2015, dated 2018).
